Laboratory results as given in patent US5679684A, “Hydroxyalkylammonium-pyrimidines and nucleoside derivatives, useful as inhibitors of inflammatory cytokines” (Macronex, Inc., priority 1995, dated 1997).

Key:
[1] = test system: HIV-1; details: advanced HIV-1 infection and AIDS; cited from earlier work
[2] = test system: latent HIV-1; details: monocytoid (U1) cell line; cited from earlier work
[3] = test system: TNF-α; details: associated with HIV-1 inhibition; cited from earlier work
[4] = Endotoxin testing (kinetic chromogenic procedure); set-up: key: NE: No effect; NT: Not tested; INHIB: Inhibition; STIM: Stimulation; IC20: 20% Inhibitory Concentration; EC50: 50% Effective Concentration; TC: Tolerated Concentration
Experimental: All batches of media and reagents are tested to ensure they are free of endotoxins before they are used. This laboratory uses a kinetic chromogenic procedure (Kinetic QCL; Whittaker Bioproducts) for the determination of endotoxin, performed using the Thermomax Plate reader from Molecular Devices. The plate reader incorporates dedicated software for the computer analysis of all data. Samples are tested following the manufacturer's instructions, at 3 different concentrations, in triplicate. Reference Standard Endotoxin (United States Pharmacopeia) obtained at a concentration of 10,000 endotoxin units/ml, is used to generate a standard curve to determine the actual concentration of endotoxin in the samples (sensitivity =/>0.005 endotoxin units/ml).

[5] = test system: superoxide anion; assay: Monocyte superoxide anion (O2) release; format: cell-based, human; set-up: key to EFFECT: NE: No effect; NT: Not tested; INHIB: Inhibition; STIM: Stimulation; IC20: 20% Inhibitory Concentration; EC50: 50% Effective Concentration; TC: Tolerated Concentration
Experimental: Monocyte Superoxide Anion (O2) Release:
Monocytes are prepared as described above and resuspended to 5×10^6 /ml in HBSS containing 10 Mm HEPES, 2 g/l glucose, 0.1% BSA, Ph 7.2. To each well of a 96-well flat bottom, tissue culture plate is added 100 μl of cell suspension and 100 μl of buffer or test materials. Samples are run in quadruplicate. The plate is incubated for 60 min. at 37° C. followed by the addition of 50 μl of buffer containing cytochrome C (5 mg/ml; type VI, horse heart, Sigma) and bovine liver catalase (1500 U/ml; Sigma) in the presence of zymosan A ([…]; 750 μg/ml; Sigma). The plate is incubated an additional 120 minutes at 37° C. during which the absorbance at 550 nm is monitored using a microplate reader incorporating dedicated software for kinetic analysis (Molecular Devices; Menlo Park, Calif.).

[6] = test system: human peripheral blood mononuclear cells (PBMC); assay: PBMC proliferation to mitogens (PHA); format: cell-based; set-up: key: NE: No effect; NT: Not tested; INHIB: Inhibition; STIM: Stimulation; IC20: 20% Inhibitory Concentration; EC50: 50% Effective Concentration; TC: Tolerated Concentration
Experimental: (§1) Human Peripheral Blood Mononuclear Cell (PBMC) Isolation:
(§2) Venous blood is obtained from healthy volunteers and mixed with an equal volume of sterile isotonic saline/10 mM HEPES and placed into 50 ml conical polypropylene tubes in 30 ml aliquots. Each aliquot of diluted blood is underlaid with 20-25 ml of sterile Lymphocyte Separation Medium (LSM; Organon-Technika, Durham, N.C.). The tubes are centrifuged at 400 g for 40 minutes at room temperature. The mononuclear cells at the interface are removed and washed twice in sterile isotonic saline/10 mM HEPES followed by a wash in Hank's Balanced Salt Solution (HBSS) or RPMI without serum, depending on their intended use. Cell concentrations for each donor are determined by counting in a haematology and analyser (Serono-Baker).
PBMC Proliferation to Mitogens (PHA):
PBMC are adjusted to 4×10^6 /ml in complete medium. To each well of a 96 well flat bottom tissue culture plate (Falcon 3072) is added 50 μl of cell suspension. Test materials (diluted in complete medium to 2× the desired final concentration) are added in 100 μl volumes to each well. […] The contents of the wells are harvested onto glass fibre filters using a multiple automated sample harvester (Tomtec), and the incorporated […] determined by liquid scintillation spectrophotometry and represented an cpm (counts per minute) incorporated per well.

[7] = test system: PAF; assay: Monocyte release of PAF; format: cell-based, human; set-up: key: NE: No effect; NT: Not tested; INHIB: Inhibition; STIM: Stimulation; IC20: 20% Inhibitory Concentration; EC50: 50% Effective Concentration; TC: Tolerated Concentration; details: zymosan A stimulated
Experimental: (§3) Monocyte Release of PGE2, LTB4, and PAF:
(§4) Monocytes isolated as described above, were washed and resuspended in RPM1 containing 5 mg/ml HSA at 2×10^6 cells/ml and added to wells of a 48-well plates. The cells were allowed to adhere for 2 hours then washed in HBSS-BSA-HEPES buffer. Test materials were added at four concentrations (175 μl) for 60 minutes; then the monocytes were stimulated by addition of […] zymosan A (175 μl of 2× desired final concentration added). Supernatant medium was collected from the wells after 90 minutes incubation and stored at -20° C. until assayed. Supernatants were assayed for PGE2, LTB4 or PAF using specific scintillation proximity assays (SPA).

[8] = test system: TNF-α; assay: Monocyte release of TNF-α; format: cell-based, human; set-up: key to EFFECT: NE: No effect; NT: Not tested; INHIB: Inhibition; STIM: Stimulation; IC20: 20% Inhibitory Concentration; EC50: 50% Effective Concentration; TC: Tolerated Concentration; details: TNFα
[9] = test system: human peripheral blood mononuclear cells (PBMC); assay: Two-way mixed lymphocyte reaction (MLR); format: cell-based; set-up: key: NE: No effect; NT: Not tested; INHIB: Inhibition; STIM: Stimulation; IC20: 20% Inhibitory Concentration; EC50: 50% Effective Concentration; TC: Tolerated Concentration
Experimental: as §1, §2
Two-Way Mixed Lymphocyte Reaction (MLR):
PBMC are prepared as described for the mitogen assays, but resuspended to 2×10^6 cells/ml in complete medium. Fifty μl of cell suspension from two different individuals is then added to each well of a 96-well flat bottom tissue culture plate. An additional 100 μl of complete medium, dexamethasone or test compounds are then added to each well, the plates are incubated for 6 days at 37° C., and then pulsed with ^3 H-thymidine and harvested as previously described.

[10] = test system: PGE2; assay: Monocyte release of PGE2; format: cell-based, human; set-up: key: NE: No effect; NT: Not tested; INHIB: Inhibition; STIM: Stimulation; IC20: 20% Inhibitory Concentration; EC50: 50% Effective Concentration; TC: Tolerated Concentration; details: zymosan A stimulated
Experimental: as §3, §4

[11] = MTS; format: cell-based; set-up: key to EFFECT: NE: No effect; NT: Not tested; INHIB: Inhibition; STIM: Stimulation; IC20: 20% Inhibitory Concentration; EC50: 50% Effective Concentration; TC: Tolerated Concentration
[12] = test system: LTB4; assay: Monocyte release of LTB4; format: cell-based, human; set-up: key: NE: No effect; NT: Not tested; INHIB: Inhibition; STIM: Stimulation; IC20: 20% Inhibitory Concentration; EC50: 50% Effective Concentration; TC: Tolerated Concentration; details: zymosan A stimulated
Experimental: as §3, §4

[13] = LDH; format: cell-based; set-up: key to EFFECT: NE: No effect; NT: Not tested; INHIB: Inhibition; STIM: Stimulation; IC20: 20% Inhibitory Concentration; EC50: 50% Effective Concentration; TC: Tolerated Concentration
[14] = test system: GM-CSF; assay: Monocyte release of GM-CSF; format: cell-based, human; set-up: key to EFFECT: NE: No effect; NT: Not tested; INHIB: Inhibition; STIM: Stimulation; IC20: 20% Inhibitory Concentration; EC50: 50% Effective Concentration; TC: Tolerated Concentration
[15] = test system: IL-6; assay: Monocyte release of IL-6; format: cell-based, human; set-up: key to EFFECT: NE: No effect; NT: Not tested; INHIB: Inhibition; STIM: Stimulation; IC20: 20% Inhibitory Concentration; EC50: 50% Effective Concentration; TC: Tolerated Concentration; details: IL6
[16] = test system: IL-1β; assay: Monocyte release of IL-1β; format: cell-based, human; set-up: key to EFFECT: NE: No effect; NT: Not tested; INHIB: Inhibition; STIM: Stimulation; IC20: 20% Inhibitory Concentration; EC50: 50% Effective Concentration; TC: Tolerated Concentration; details: IL1β
[17] = test system: monocytes; assay: Inhibition of monocyte chemotaxis; format: cell-based, human; set-up: key to EFFECT: NE: No effect; NT: Not tested; INHIB: Inhibition; STIM: Stimulation; IC20: 20% Inhibitory Concentration; EC50: 50% Effective Concentration; TC: Tolerated Concentration; details: chemoattractant FMLP
Experimental: Inhibition of Monocyte Chemotaxis:
Monocytes are prepared as previously described, and resuspended at 5×10^6 cells/ml in HBSS, 0.1% BSA (HBSS-BSA). Fluorophore labeling of the cells is carried out by adding calcein-AM to the above cells at a final concentration of 2 μM. Following a 30 minute incubation at 37° C. in humidified 5% CO2, the labeled monocytes are washed twice and incubated in a range of dilutions of the test materials for 60 minutes at 37° C. in humidified 5% CO2. The pre-treated, calcein-AM loaded cells are then added in triplicate to the wells of the top compartment of a NeuroProbe (Cabin, John, M.D.) 96-well chemotaxis chamber (2×10^5 cells/well) and permitted to migrate through a 10 μm thick bonded polycarbonate membrane (5 μm porosity; NeuroProbe Inc; Cabin, John, M.D.) towards the wells of the lower compartment containing the chemoattractant (FMLP) at 5×10^-9 M. After a 90 minute incubation at 37° C. in a humidified chamber, the wells of the upper chambers are aspirated, the monocyte-associated membrane removed, non-migrating cells wiped off and the filters permitted to air dry to 15 minutes. The number of cells migrating through the membranes are quantified by measuring the fluorescent intensity of the migrating cells in a fluorescent microplate reader (CytoFluor 2300, Millipore Corp., Bedford, Mass.)

[18] = test system: Tissue Factor; assay: Monocyte procoagulant activity (Tissue Factor); format: cell-based, human; set-up: key to EFFECT: NE: No effect; NT: Not tested; INHIB: Inhibition; STIM: Stimulation; IC20: 20% Inhibitory Concentration; EC50: 50% Effective Concentration; TC: Tolerated Concentration
Experimental: Monocyte Procoagulant Activity (Tissue Factor):
The adhered monocytes remaining on the 48-well tissue culture plates after removal of the supernatants above, are used to measure levels of Tissue Factor production. The cells are solubilized overnight at 4° C. in 10% Triton-X100 in PBS, diluted to 1% Triton-X100 with PBS then assayed by ELISA for Tissue Factor.

[19] = test system: IL-8; assay: Monocyte release of IL-8; format: cell-based, human; set-up: key to EFFECT: NE: No effect; NT: Not tested; INHIB: Inhibition; STIM: Stimulation; IC20: 20% Inhibitory Concentration; EC50: 50% Effective Concentration; TC: Tolerated Concentration; details: IL8

O=C1CCC(N2C(=O)c3ccccc3C2=O)C(=O)N1 (centres unmarked) [Thalidomide]
inhibition of activation of virus in PBMC, patients [1]: 16 out of 17
activation of latent HIV-1 [2]: suppress the activation of latent HIV-1
agonist-induced TNF-α protein and mRNA production [3]: reduction

CCCCCCCCCCCCCCCC(=O)OCC[N+](C)(C)CCOCn1cc(C)c(=O)[nH]c1=O [Example 6, N,N-Dimethyl-N-2-(hexadecanoyloxy)ethyl-N-[N^1-(5-methyl-2,4-dioxopyrimidinyl)methoxyethyl]ammonium iodide]
EFFECT [4]: NE
EFFECT [5]: INHIB
EC50 ([5]; Homo sapiens, Monocyte): 34 µM
EFFECT [6]: NE
EFFECT [7]: NE
EC50 ([8]; Homo sapiens, Monocyte): 5.5 µM
EFFECT [8]: INHIB
EFFECT [9]: NE
EFFECT [10]: NE
EFFECT [11]: TC
MNTC ([11]; mts assay, effect TC, read-out: Tolerated Concentration (EC50)): 100 µM
EFFECT [12]: NE
EFFECT [13]: TC
MNTC ([13]; ldh assay, effect TC, read-out: Tolerated Concentration (EC50)): 100 µM
EFFECT [14]: INHIB
EC50 ([14]; Homo sapiens, Monocyte): 12.6 µM
EC50 ([15]; Homo sapiens, Monocyte): 5.7 µM
EFFECT [15]: INHIB
EC50 ([16]; Homo sapiens, Monocyte): 7.5 µM
EFFECT [16]: INHIB
EC50 ([17]; Homo sapiens, Monocyte): 47 µM
EFFECT [17]: INHIB
EFFECT [18]: INHIB
EC50 ([18]; Homo sapiens, Monocyte): 4.3 µM
EC50 ([19]; Homo sapiens, Monocyte): 2.9 µM
EFFECT [19]: INHIB
